{"source": "patent US20080292723A1", "about": "“Bioactive acid agrichemical compositions and use thereof” (priority 2007, published 2008)", "key": {"[1]": {"system": "E. amylovora 153N", "test": "Fire blight on crabapples", "format": "in vivo, Snow Drift crabapple trees", "details": "for canker, in words / shoot blight incidence, in words: day 63", "description": "A study of the bioefficacy of the various agrichemical compositions, including bioactive acid solutions and blends thereof with an antibiotic agrichemical, were evaluated to assess their bioefficacy against fire blight on crabapples. The study was conducted on 5 year old Snow Drift crabapple trees, with each of the compositions being applied to ten trees in two-subplots of five trees, four different times: at 100% bloom-day 1, a second application was made on day 4, a third on day 11 and a final treatment on day 19. The trees were inoculated with E. amylovora […] at a concentration of 4×10^6 cells per milliliter on day 1, following drying of the treatment, with the inoculation being repeated on day 13. Evaluation for fire blight was completed on 100 blossoms for each of the subplots on day 12, day 19 and day 27. Additionally, the incidence of shoot infection and the length of […] evaluated on day 63. The test compositions were prepared by forming solutions of the bioactive agents. Two different dilutions of the MI2 bioactive were evaluated, the first employing 94.46 ml/gallon (25 ml/l) of water (5 ppm of each metal) and the second 188.9 ml/gallon (50 ml/l) of water (10 ppm of each metal). […] Finally, copper hydroxide was diluted at a rate of 1 lb/gallon (119.8 g/l). Each of the compositions and blends were spray applied at a rate of 50 gallons (189.3 l) pre acre. The results are presented as the mean of the counts."}, "[2]": {"system": "Saccharomycetes Cerevisiae (Fleishmann's Bakers yeast)", "test": "Yeast growth inhibition by turbidity", "format": "cell-based", "details": "Table 12, surfactant ~0.05 wt %, neat additive, Metal 0 ppm", "description": "Saccharomycetes Cerevisiae was selected as a test organism as it is generally accepted in the industry as an indicator or surrogate organism for a wide variety of fungi. In each of these experiments, the same general procedure was followed unless otherwise indicated.\nExperimental Detail: A growth medium was prepared by adding 10 grams of nutrient medium (Difco Sabouraud dextrose broth from BD of Franklin Lakes, N.J., USA) to 300 ml of distilled water. Fleishmann's Bakers yeast was then added to the growth medium while mixing using a magnetic stirrer until a uniform dispersion was obtained having an initial turbidity of between about 50 and 100 NTU as measured using a HF Instruments DRT 100B Turbidity Meter. […] The system/component to be evaluated was then added to the vial and intimately shaken to ensure a good, substantially homogeneous mixture. The turbidity of each mixture was then determined and the vial transferred to an incubator at 30° C. Each vial was periodically removed from the incubator and the mixture in the vials assessed for turbidity: the specific timing for such evaluation was as set forth in the discussion of the experiments and the accompanying tables. […]\nIn the tables below, the results are presented as the actual turbidity readings (NTU) with a sub-table presenting the change or delta in NTU values. […]"}}}
{"smiles": "[Cu+2].[OH-].[OH-]", "note": "[copper hydroxide]", "values": [{"measurement": "Shoot Incidence", "setting": "[1]; Day 63, rate 5 lbs/a (2.27 kg/a), mean of counts", "value": 1.0}, {"measurement": "canker, in words", "setting": "[1]", "value": "appeared to prevent canker"}, {"measurement": "shoot blight incidence, in words", "setting": "[1]", "value": "greatly reduced"}]}
{"smiles": "CCCCCCCCCCCCOS(=O)(=O)[O-].[Na+]", "values": [{"measurement": "T0 (turbidity)", "setting": "[2]", "value": 48}]}
{"smiles": "[H]/N=C(/N)N[C@H]1[C@H](O)[C@@H](O)[C@H](O[C@@H]2O[C@@H](C)[C@](O)(C=O)[C@H]2O[C@@H]2O[C@@H](CO)[C@H](O)[C@@H](O)[C@@H]2NC)[C@@H](N/C(N)=N\\[H])[C@@H]1O", "note": "[streptomycin]", "values": [{"measurement": "canker, in words", "setting": "[1]", "value": "appeared to prevent canker"}, {"measurement": "shoot blight incidence, in words", "setting": "[1]", "value": "greatly reduced"}]}
